Data reported in ChEMBL document CHEMBL1629455, “Discovery of a novel class of biphenyl pyrazole sodium channel blockers for treatment of neuropathic pain” (Bioorg Med Chem Lett, 2010).

Key:
[1] = molecular target: T1, Sodium channel protein type 9 subunit alpha (Homo sapiens, UniProt Q15858); assay: Inhibition of human Nav1.7 by VIPR assay
Target sequence in this assay (Q15858 whole entry): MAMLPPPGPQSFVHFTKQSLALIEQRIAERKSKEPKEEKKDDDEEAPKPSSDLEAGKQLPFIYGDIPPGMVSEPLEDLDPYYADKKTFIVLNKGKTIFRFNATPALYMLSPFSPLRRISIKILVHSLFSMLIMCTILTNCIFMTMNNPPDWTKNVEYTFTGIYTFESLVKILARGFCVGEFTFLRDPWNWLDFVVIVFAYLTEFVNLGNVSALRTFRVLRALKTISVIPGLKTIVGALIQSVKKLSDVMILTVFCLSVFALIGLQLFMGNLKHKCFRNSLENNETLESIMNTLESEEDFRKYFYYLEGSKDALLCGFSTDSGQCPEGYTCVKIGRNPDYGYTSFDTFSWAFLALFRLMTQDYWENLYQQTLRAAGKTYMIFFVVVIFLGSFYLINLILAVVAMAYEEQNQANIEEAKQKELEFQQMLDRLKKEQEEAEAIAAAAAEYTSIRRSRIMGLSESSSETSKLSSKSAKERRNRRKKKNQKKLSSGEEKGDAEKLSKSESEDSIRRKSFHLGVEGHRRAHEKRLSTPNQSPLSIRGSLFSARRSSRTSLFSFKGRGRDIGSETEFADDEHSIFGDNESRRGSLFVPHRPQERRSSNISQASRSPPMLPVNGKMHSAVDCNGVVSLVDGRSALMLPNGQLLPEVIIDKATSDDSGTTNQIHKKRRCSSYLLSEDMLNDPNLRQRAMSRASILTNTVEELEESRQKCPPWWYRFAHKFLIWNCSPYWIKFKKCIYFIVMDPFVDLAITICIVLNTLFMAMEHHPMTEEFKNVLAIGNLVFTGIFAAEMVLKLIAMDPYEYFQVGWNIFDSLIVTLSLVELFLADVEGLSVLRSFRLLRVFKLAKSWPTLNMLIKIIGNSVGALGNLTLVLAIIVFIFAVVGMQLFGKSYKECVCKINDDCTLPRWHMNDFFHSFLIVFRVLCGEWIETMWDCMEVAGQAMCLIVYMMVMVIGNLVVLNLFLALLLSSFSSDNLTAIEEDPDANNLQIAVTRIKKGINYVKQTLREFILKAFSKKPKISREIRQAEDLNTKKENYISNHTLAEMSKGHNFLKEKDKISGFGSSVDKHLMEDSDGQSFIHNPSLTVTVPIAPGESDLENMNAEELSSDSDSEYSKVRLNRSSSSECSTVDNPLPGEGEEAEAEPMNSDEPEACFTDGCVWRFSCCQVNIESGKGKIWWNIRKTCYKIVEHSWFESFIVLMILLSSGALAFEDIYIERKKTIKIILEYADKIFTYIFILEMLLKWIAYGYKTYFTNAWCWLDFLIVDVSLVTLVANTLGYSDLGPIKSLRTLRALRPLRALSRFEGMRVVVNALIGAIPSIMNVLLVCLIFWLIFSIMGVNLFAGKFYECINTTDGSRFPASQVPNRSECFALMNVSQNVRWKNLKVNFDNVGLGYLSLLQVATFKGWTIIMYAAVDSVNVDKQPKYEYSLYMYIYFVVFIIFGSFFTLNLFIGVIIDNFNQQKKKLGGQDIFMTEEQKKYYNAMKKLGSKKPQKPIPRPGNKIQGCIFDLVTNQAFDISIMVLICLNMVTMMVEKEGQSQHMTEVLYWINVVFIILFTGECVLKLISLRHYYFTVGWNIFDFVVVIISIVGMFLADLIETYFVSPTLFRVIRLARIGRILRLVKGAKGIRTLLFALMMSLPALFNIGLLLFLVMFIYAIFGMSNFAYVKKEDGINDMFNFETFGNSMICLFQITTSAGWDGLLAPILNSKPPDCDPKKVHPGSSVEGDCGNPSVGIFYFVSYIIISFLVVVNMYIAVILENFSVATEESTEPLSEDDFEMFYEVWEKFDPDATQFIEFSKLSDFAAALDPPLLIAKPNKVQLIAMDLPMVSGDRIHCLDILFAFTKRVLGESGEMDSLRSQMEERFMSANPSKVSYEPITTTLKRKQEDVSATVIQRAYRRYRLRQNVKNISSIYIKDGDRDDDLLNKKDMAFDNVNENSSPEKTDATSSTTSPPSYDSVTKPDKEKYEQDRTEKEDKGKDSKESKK

hERG (KCNH2) = hERG (KCNH2) (Homo sapiens, UniProt Q12809); assay: Inhibition of MK-0499 binding to human ERG at 10 uM; conditions: probe MK-0499
[2] = molecular target: Sodium channel protein type 10 subunit alpha (Homo sapiens, UniProt Q9Y5Y9); assay: Inhibition of human Nav1.8 by VIPR assay
Sodium channel protein type 10 subunit alpha, sequence (Q9Y5Y9 whole entry): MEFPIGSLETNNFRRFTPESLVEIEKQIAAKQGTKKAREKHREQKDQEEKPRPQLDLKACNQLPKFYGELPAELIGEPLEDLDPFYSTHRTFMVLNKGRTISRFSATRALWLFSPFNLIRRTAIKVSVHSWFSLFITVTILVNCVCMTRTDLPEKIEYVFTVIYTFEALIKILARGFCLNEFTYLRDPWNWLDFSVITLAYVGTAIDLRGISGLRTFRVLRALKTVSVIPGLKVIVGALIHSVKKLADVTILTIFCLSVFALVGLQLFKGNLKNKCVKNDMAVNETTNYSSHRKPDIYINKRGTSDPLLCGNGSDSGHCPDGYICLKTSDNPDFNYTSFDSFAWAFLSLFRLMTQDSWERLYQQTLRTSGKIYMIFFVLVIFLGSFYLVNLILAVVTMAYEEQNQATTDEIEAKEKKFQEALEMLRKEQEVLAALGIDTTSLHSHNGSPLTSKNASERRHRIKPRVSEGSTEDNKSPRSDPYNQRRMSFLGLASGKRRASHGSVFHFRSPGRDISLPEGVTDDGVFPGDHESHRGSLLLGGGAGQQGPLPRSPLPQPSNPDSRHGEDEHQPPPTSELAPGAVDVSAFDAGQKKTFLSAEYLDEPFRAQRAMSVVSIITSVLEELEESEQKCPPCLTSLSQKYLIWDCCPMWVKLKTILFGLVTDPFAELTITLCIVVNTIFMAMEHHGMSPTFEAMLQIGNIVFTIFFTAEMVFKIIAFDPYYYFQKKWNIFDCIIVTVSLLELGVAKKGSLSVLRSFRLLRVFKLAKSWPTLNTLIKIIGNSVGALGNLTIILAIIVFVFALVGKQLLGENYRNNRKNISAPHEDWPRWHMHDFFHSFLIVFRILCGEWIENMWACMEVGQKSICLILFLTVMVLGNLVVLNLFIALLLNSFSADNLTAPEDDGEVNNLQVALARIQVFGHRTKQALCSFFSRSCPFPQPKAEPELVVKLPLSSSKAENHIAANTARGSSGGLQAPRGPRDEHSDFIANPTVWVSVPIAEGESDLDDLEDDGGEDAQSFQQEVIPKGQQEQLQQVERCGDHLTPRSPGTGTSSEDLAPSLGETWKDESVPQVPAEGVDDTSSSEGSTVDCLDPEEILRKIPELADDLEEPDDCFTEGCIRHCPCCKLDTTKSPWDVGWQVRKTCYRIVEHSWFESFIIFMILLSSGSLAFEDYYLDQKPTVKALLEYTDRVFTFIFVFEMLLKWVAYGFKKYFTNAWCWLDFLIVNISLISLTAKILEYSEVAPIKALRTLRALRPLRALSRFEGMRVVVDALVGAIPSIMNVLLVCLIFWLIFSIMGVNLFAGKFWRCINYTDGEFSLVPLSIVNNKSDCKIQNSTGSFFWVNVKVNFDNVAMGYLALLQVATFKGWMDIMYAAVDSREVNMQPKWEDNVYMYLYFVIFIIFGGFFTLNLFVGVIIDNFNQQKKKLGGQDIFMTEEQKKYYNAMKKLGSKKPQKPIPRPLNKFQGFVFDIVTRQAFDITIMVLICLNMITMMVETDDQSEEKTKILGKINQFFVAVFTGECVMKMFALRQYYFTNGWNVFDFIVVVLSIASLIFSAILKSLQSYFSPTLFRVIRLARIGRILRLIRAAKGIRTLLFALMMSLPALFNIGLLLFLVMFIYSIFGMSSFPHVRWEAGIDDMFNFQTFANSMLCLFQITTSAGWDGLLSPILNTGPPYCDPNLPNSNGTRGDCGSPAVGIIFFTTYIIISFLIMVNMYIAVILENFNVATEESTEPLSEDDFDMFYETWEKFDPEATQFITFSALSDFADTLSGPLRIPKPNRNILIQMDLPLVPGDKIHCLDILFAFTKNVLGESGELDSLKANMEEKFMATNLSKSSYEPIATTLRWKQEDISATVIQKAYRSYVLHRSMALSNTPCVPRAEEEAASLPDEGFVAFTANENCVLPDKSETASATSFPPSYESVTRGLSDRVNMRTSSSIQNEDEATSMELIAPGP

Rattus norvegicus [3] = assay: Antiallodynic activity in rat spinal nerve ligation model of neuropathic pain assessed as reversal of allodynia at 10 mg/kg, po after 4 hrs; format: functional
Rattus norvegicus [4] = assay: Antiallodynic activity in rat spinal nerve ligation model of neuropathic pain assessed as reversal of allodynia at 10 mg/kg, po after 2 hrs; format: functional
[5] = molecular target: T1, Sodium channel protein type 9 subunit alpha; assay: Inhibition of human Nav1.7 at 10 uM by VIPR assay
Target sequence in this assay (Q15858 whole entry, looked up): as the sequence (Q15858 whole entry) above

hERG (KCNH2), sequence (Q12809 whole entry): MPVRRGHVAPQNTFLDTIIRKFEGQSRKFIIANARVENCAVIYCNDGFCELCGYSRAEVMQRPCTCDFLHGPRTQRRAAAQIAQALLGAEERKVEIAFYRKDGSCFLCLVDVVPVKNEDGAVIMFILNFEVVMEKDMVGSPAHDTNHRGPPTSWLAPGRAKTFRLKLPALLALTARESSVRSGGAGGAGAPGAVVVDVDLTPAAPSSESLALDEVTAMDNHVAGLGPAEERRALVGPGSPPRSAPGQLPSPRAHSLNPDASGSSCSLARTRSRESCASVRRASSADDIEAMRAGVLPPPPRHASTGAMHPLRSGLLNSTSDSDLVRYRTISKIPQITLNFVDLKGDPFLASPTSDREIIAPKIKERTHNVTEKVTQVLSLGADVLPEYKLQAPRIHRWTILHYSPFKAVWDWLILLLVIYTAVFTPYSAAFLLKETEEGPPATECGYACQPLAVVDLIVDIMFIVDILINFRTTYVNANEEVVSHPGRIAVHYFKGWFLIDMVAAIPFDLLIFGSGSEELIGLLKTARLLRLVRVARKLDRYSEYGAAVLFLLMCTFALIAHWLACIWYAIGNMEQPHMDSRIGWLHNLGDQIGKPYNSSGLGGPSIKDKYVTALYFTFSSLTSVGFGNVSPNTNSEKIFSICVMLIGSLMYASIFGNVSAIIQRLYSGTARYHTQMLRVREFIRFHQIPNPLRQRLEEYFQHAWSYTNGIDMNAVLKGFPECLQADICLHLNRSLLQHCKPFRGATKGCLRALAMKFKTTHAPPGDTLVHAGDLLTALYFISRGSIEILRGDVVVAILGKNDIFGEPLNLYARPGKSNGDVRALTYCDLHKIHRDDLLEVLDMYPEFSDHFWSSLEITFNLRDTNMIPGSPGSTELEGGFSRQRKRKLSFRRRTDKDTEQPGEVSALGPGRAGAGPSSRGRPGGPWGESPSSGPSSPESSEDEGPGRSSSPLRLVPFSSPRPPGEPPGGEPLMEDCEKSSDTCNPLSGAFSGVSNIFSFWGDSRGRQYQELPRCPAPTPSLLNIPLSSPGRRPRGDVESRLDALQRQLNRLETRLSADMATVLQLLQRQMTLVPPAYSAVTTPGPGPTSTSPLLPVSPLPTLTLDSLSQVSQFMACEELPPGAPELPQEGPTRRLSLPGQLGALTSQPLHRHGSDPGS

Structure (SMILES)	IC50 [1] [nM]	IC50 [2] [nM]	Ki [1] [nM]	inhibition [5] [%]	inhibition at 10 µM (hERG (KCNH2)) [%]	Activity (Rattus norvegicus [3]) [%]	Activity (Rattus norvegicus [4]) [%]
NC(=O)c1nn(-c2cccc(-c3ccccc3OC(F)(F)F)c2)c(C(N)=O)c1C(N)=O	115	–	–	–	49	–	–
CCOC(=O)c1cc(C(N)=O)nn1-c1cccc(-c2ccccc2OC(F)(F)F)c1	10	–	–	–	72	–	–
NC(=O)c1cc(C(N)=O)n(-c2cccc(-c3cccc(Cl)c3Cl)c2)n1	195	–	–	–	–	7	15
Cc1c(C(N)=O)c(C(N)=O)nn1-c1cccc(-c2ccccc2OC(F)(F)F)c1	185	–	–	–	15	8	16
Cc1cc(C(N)=O)nn1-c1cccc(-c2ccc(C(F)(F)F)cc2C(F)(F)F)c1	–	–	340	–	–	–	–
Cc1cc(C(N)=O)nn1-c1cccc(-c2ccccc2OC(F)(F)F)c1	–	–	–	–	69	11	33
NC(=O)c1nc(-c2cccc(-c3ccccc3OC(F)(F)F)c2)cs1	–	–	230	–	–	–	–
NC(=O)c1cc(C(N)=O)n(-c2cccc(-c3ccccc3C(F)(F)F)c2)n1	155	915	–	–	–	2	9
NC(=O)c1cc(C(N)=O)n(-c2cccc(-c3cccc(C(F)(F)F)c3OCC(F)(F)C(F)(F)F)c2)n1	147	299	–	–	–	8	22
NC(=O)c1cc(C(N)=O)n(-c2ccc(F)c(-c3ccccc3OC(F)(F)F)c2)n1	477	–	–	–	–	–	–
CCNC(=O)c1cc(C(=O)NCC)n(-c2cccc(-c3ccccc3OC(F)(F)F)c2)n1	–	–	–	1	27	–	–
CCNC(=O)c1cc(C(N)=O)nn1-c1cccc(-c2ccccc2OC(F)(F)F)c1	29	–	–	–	20	–	–
NC(=O)c1cn(-c2cccc(-c3ccccc3OC(F)(F)F)c2)nc1C(N)=O	49	–	–	–	1	8	18

The next lines start with results.

IC50 [1] [nM]	IC50 [2] [nM]	Ki [1] [nM]	inhibition [5] [%]	Structure (SMILES)	inhibition at 10 µM (hERG (KCNH2)) [%]	Activity (Rattus norvegicus [3]) [%]	Activity (Rattus norvegicus [4]) [%]
132	554	–	–	NC(=O)c1cc(C(N)=O)n(-c2cccc(-c3ccccc3OC(F)(F)F)c2)n1	21	19	35
715	–	–	–	NC(=O)c1cc(C(N)=O)n(-c2cccc(-c3c(C(F)(F)F)cccc3C(F)(F)F)c2)n1	–	–	–
46	149	–	–	NC(=O)c1cc(C(N)=O)n(-c2cccc(-c3cc(F)ccc3OCC(F)(F)C(F)(F)F)c2)n1	–	9	25
106	–	–	–	NC(=O)c1cc(C(N)=O)n(-c2cccc(-c3ccc(F)cc3OCC(F)(F)C(F)(F)F)c2)n1	–	8	28
106	802	–	–	NC(=O)c1cc(C(N)=O)n(-c2cccc(-c3c(F)cccc3OC(F)(F)F)c2)n1	–	9	15
282	1510	–	–	NC(=O)c1cc(C(N)=O)n(-c2cccc(-c3cccc(OC(F)(F)F)c3F)c2)n1	–	8	28
64	203	–	–	NC(=O)c1cc(C(N)=O)n(-c2cccc(-c3cccc(OC(F)(F)F)c3OCC(F)(F)C(F)(F)F)c2)n1	–	3	6
325	1180	–	–	NC(=O)c1cc(C(N)=O)n(-c2cccc(-c3cc(C(F)(F)F)ccc3OC(F)(F)F)c2)n1	–	6	29
